Source: patent US8536191B2 (priority 2010, dated 2013)
Read-outs that look alike come from different tables or passages of the source.

Key:
[1] = Physical stability under mechanical stress (compression, grinding, milling), checked by X-ray powder diffraction; format: physicochemical
Description: The crystalline forms of nalbuphine HCl were identified by their powder X-ray diffraction (PXRD) peaks/pattern. PXRD analyses of crystalline Forms A, B, C, D, F, G, H, I, K and amorphous Form Z were performed using an Inel XRG-3000 diffractometer equipped with a CPS (Curved Position Sensitive) detector with a 2θ range of 120°. Real time data were collected using Cu—Kα radiation starting at approximately 4°2θ at a resolution of 0.03°2θ. The tube voltage and amperage were set to 40 kV and 30 mA, respectively. The monochromator slit was set at 5 mm by 160 μm. […] The sample was prepared for analysis by packing into a thin-walled glass capillary. The capillary was mounted onto a goniometer head that is motorized to permit spinning of the capillary during data acquisition. Instrument calibration was performed using a silicon reference standard.

[2] = Form conversion upon heating (VT-XRPD); format: physicochemical; conditions: before melting, HCl
Description: Variable-temperature X-ray powder diffraction (VT-XRPD) analysis was performed on a Shimadzu XRD-6000 X-ray powder diffractometer equipped with an Anton Paar HTK 1200 high temperature stage. The sample was packed in a ceramic holder and analyzed from 2.5 to 40°2θ at 3°/min (0.4 sec/0.02° step). The heating rate was 10° C./min. Cooling was done by shutting off the furnace. A silicon standard was analyzed to check the instrument alignment. Temperature calibration was performed using vanillin and sulfapyridine standards. Data were collected and analyzed using XRD-6100/7000 v. 5.0. In house software (Pattern Match, SSCI Inc., An Aptuit Company) was used to generate and edit the peak lists. The value of each peak position represents the value at the apex of the peak. In the tables which follow herein, the PXRD peak lists are presented for each solid form along with the conversion to ‘d’ value (assuming a mean Cu Kα wavelength of 1.5418 Å) and relative peak intensities scaled to 100. The relative intensity (“R.I.”) of each peak is shown, wherein Relative Intensity is the ratio of the height of each peak compared to the highest peak, which is designated as 100%.

[3] = Physical stability on drying at 60° C.; conditions: dried at 60° C.

Cl.Oc1ccc2c3c1O[C@H]1[C@@H](O)CC[C@@]4(O)[C@@H](C2)N(CC2CCC2)CC[C@]314 [Form B, nalbuphine HCl]
physical stability when milled ([1]; milled, X-ray powder diffraction): physically unstable when milled, losing its crystallinity
temperature of conversion to Form F upon heating [2]: about 190 °C
physical stability when dried [3]: mostly converting to Form C (monohydrate)

Cl.Oc1ccc2c3c1O[C@H]1[C@@H](O)CC[C@@]4(O)[C@@H](C2)N(CC2CCC2)CC[C@]314 [Form D, nalbuphine HCl]
temperature of conversion to Form F upon heating [2]: about 180 °C

Cl.Oc1ccc2c3c1O[C@H]1[C@@H](O)CC[C@@]4(O)[C@@H](C2)N(CC2CCC2)CC[C@]314 [Form A]
form change at extremely high humidity (97% RH, hydrochloride): Form B (dihydrate)
form change under mechanical stress ([1]; compression or dry grinding): converting to Form C
effect of further grinding on crystallinity ([1]; further grinding, X-ray powder diffraction): some loss of crystallinity and formed partially amorphous material
form change under mechanical stress ([1]; wet grinding): Form B

Cl.Oc1ccc2c3c1O[C@H]1[C@@H](O)CC[C@@]4(O)[C@@H](C2)N(CC2CCC2)CC[C@]314 [Form F, nalbuphine HCl]
form change at extremely high humidity (85% RH): converts to Form B (dihydrate)

Cl.Oc1ccc2c3c1O[C@H]1[C@@H](O)CC[C@@]4(O)[C@@H](C2)N(CC2CCC2)CC[C@]314 [Form C, nalbuphine HCl]
form change at extremely high humidity (97% RH): converts to Form B (dihydrate)
temperature of conversion to Form F upon heating [2]: 200 °C
